“And” between values parts separate entries of the source, which are not always exact repeats. Equal values may be shown once. Where a name gives a salt, the structure may show the parent alone.
Target: T1, recombinant human AMPK complex, containing α2β1γ2 (Homo sapiens, UniProt P54646+Q9Y478)
T1 construct: hsAMPKα2-552-His, hsAMPKβ1-2-270 and hsAMPKγ-2-569 respectively; hsAMPKβ1-2-270; hsAMPKγ-2-569; His (C); made in house; host or cells: Spodoptera frugiperda Sf21 (baculovirus)
Experiment: AMPK in vitro activation assay (HTRF)
Type: biochemical
Conditions: for EC50: HTRF, recombinant human α2β1γ2 AMPK, 200 μM ATP, biotinylated ACC-CREBp peptide, repeat determinations on separate lines
In short: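 HTRF phosphorylation read-out (Eu-cryptate anti-pS133-CREB, streptavidin-XL665) after a 45 min, 37° C kinase step. This step was initiated by a solution with 200 μM ATP and 2 or 0.08 μM biotinylated ACC-CREBp peptide. Beforehand, compound sat 30 min at room temperature with baculovirus/Sf21 α2β1γ2 in pH 7.0 HEPES buffer; EC50 derived from activation over basal.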

[1] = potentiation of AMPK activity as percent over the basal signal (without compound)

T1 sequence (P54646 2-552): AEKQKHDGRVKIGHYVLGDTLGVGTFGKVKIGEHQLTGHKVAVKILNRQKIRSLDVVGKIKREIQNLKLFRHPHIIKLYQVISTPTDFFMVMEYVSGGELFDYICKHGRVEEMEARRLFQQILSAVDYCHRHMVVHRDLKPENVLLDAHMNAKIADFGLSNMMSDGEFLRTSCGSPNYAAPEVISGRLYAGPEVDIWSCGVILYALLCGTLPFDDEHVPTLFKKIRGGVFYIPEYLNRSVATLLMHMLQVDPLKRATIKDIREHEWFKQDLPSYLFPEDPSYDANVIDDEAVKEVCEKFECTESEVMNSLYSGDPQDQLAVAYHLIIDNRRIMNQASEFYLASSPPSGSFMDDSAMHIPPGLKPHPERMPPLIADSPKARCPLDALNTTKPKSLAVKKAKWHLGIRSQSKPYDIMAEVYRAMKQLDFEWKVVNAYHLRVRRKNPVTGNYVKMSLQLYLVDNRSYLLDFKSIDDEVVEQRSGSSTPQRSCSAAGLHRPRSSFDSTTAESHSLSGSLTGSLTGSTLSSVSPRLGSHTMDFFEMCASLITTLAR
T1 sequence (Q9Y478 2-270): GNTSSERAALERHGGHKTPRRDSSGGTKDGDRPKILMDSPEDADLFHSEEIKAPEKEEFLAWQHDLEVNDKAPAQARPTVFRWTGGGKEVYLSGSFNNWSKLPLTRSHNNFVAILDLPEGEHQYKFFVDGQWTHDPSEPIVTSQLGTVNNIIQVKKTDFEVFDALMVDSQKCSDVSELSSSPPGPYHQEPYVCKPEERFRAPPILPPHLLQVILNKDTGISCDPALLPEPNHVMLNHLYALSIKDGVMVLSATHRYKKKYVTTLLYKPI
T1 sequence (Q9UGJ0 2-569 partner limits assumed): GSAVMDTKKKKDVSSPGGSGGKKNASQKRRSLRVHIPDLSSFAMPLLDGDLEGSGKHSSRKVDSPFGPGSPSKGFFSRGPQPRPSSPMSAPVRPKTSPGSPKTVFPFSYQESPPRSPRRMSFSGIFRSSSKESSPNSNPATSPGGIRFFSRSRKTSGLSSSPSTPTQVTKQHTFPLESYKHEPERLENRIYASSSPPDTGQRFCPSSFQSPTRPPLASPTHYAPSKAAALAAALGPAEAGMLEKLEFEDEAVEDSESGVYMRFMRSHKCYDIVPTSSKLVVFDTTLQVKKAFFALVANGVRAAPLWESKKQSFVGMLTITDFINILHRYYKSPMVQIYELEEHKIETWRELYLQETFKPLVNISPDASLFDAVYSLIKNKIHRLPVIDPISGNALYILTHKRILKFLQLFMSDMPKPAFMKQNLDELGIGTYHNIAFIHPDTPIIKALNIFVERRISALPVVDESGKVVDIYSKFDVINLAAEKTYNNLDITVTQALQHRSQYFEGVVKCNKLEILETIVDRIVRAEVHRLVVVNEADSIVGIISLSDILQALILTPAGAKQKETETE

Compound	EC50	Emax [1]	α2β1γ2 AMPK Emax [1]
Cc1cc(C(O)=C2C(=O)Nc3cc(Cl)c(-c4ccc(C5(CO)CC5)cc4)cc32)on1 [Compound 6, 6-Chloro-5-[4-(1-hydroxymethyl-cyclopropyl)-phenyl]-3-[1-hydroxy-1-(3-methyl-isoxazol-5-yl)-methylidene]-1,3-dihydro-indol-2-one]	7 nM	186%	–
CN1CCC(c2ccc(-c3cc4c(cc3Cl)NC(=O)C4=C(O)c3cc(F)cc(F)c3)cc2)C1 (stereo not drawn) [Compound 150, 6-chloro-3-[(3,5-difluorophenyl)hydroxy-methylene]-5-[4-(1-methylpyrrolidin-3-yl)phenyl]indolin-2-one hydrochloride]	14 nM	137%	–
COc1cc(C(O)=C2C(=O)Nc3cc(Cl)c(-c4ccc(OC5CCOCC5)cc4)cc32)on1 [Compound 128, 6-chloro-3-[hydroxy-(3-methoxyisoxazol-5-yl)methylene]-5-(4-tetrahydropyran-4-yloxyphenyl)indolin-2-one]	52 nM	288%	–
O=C1Nc2cc(Cl)c(-c3ccc(N4CCOCC4)cc3)cc2C1=C(O)c1cccc(Cl)c1 [Compound 34, 6-Chloro-3-[1-(3-chloro-phenyl)-1-hydroxy-methylidene]-5-(4-morpholin-4-yl-phenyl)-1,3-dihydro-indol-2-one]	630 nM	156%	–
O=C1Nc2cc(Cl)c(-c3ccc(C4CC(O)C4)cc3)cc2C1=C(O)c1ccc(F)cc1F (stereo not drawn) [Compound 155, 6-chloro-3-[(2,4-difluorophenyl)hydroxy-methylene]-5-[4-(3-hydroxycyclobutyl)phenyl]indolin-2-one]	60 nM	131%	–
COc1cc(C(O)=C2C(=O)Nc3cc(Cl)c(-c4ccc(N(C)C)cc4)cc32)on1 [Compound 127, 6-chloro-5-(4-dimethylaminophenyl)-3-[hydroxy-(3-methoxyisoxazol-5-yl)methylene]indolin-2-one]	–	296%	–
COc1ccc(C(O)=C2C(=O)Nc3cc(Cl)c(-c4ccc(C5(CO)CC5)cc4)cc32)cn1 [Compound 116, 6-chloro-3-[hydroxy-(6-methoxy-3-pyridyl)methylene]-5-[4-[1-(hydroxymethyl)cyclopropyl]phenyl]indolin-2-one hydrochloride]	0.3 nM and 0.8 nM	–	–
COc1cc(C(O)=C2C(=O)Nc3cc(Cl)c(-c4ccc(C5CC(O)C5)cc4)cc32)on1 (stereo not drawn) [Compound 135, 6-chloro-5-[4-(3-hydroxycyclobutyl)phenyl]-3-[hydroxy-(3-methoxyisoxazol-5-yl)methylene]indolin-2-one]	9 nM	319%	–
Cc1cc(C(O)=C2C(=O)Nc3cc(Cl)c(-c4ccc(OCC5CCO5)cc4)cc32)on1 (stereo not drawn) [Compound 115, 6-chloro-3-[hydroxy-(3-methylisoxazol-5-yl)methylene]-5-[4-(oxetan-2-ylmethoxy)phenyl]indolin-2-one]	30 nM	149%	–
COc1ccc(-c2cc3c(cc2Cl)NC(=O)C3=C(O)c2cc(C)no2)cc1 [Compound 20, 6-Chloro-3-[1-hydroxy-1-(3-methyl-isoxazol-5-yl)-methylidene]-5-(4-methoxy-phenyl)-1,3-dihydro-indol-2-one]	410 nM	223%	–
COc1ccc(-c2cc3c(cc2Cl)NC(=O)C3=C(O)c2cc(C)no2)cc1F [Compound 55, 6-Chloro-5-(3-fluoro-4-methoxy-phenyl)-3-[1-hydroxy-1-(3-methyl-isoxazol-5-yl)-methylidene]-1,3-dihydro-indol-2-one]	430 nM	174%	–
Cc1cc(C(O)=C2C(=O)Nc3cc(Cl)c(-c4ccc(-c5ccncc5)cc4)cc32)on1 [Compound 35, 6-Chloro-3-[1-hydroxy-1-(3-methyl-isoxazol-5-yl)-methylidene]-5-(4-pyridin-4-yl-phenyl)-1,3-dihydro-indol-2-one, hydrochloride]	23 nM	151%	–
Cc1cc(C(O)=C2C(=O)Nc3cc(Cl)c(-c4ccc(C5(CO)CC5)s4)cc32)on1 [Compound 45, 6-Chloro-5-[5-(1-hydroxymethyl-cyclopropyl)-thiophen-2-yl]-3-[1-hydroxy-1-(3-methyl-isoxazol-5-yl)-methylidene]-1,3-dihydro-indol-2-one]	230 nM	155%	–
O=C1Nc2cc(Cl)c(-c3ccc(N4CCOCC4)cc3)cc2C1=C(O)c1ccc(OC(F)(F)F)c(F)c1 [Compound 95, 6-chloro-3-[[3-fluoro-4-(trifluoromethoxy)phenyl]-hydroxy-methylene]-5-(4-morpholinophenyl)indolin-2-one]	396 nM	159%	–
6-Chloro-3-[1-hydroxy-1-(3-methoxy-isoxazol-yl)-methylidene]-5-[4-(1-hydroxymethyl-cyclopropyl)-phenyl]-1,3-dihydro-indol-2-one [Compound 54]	5 nM	–	(187) %
COc1cc(C(O)=C2C(=O)Nc3cc(Cl)c(-c4ccc(N(C)C)c(F)c4)cc32)on1 [Compound 147, 6-chloro-5-[4-(dimethylamino)-3-fluoro-phenyl]-3-[hydroxy-(3-methoxyisoxazol-5-yl)methylene]indolin-2-one]	15 nM	267%	–
COc1cccc(-c2ccc(-c3cc4c(cc3Cl)NC(=O)C4=C(O)c3cc(C)ns3)cc2)c1O [Compound 42, 6-Chloro-5-(2′-hydroxy-3′-methoxy-biphenyl-4-yl)-3-[1-hydroxy-1-(3-methyl-isothiazol-5-yl)-methylidene]-1,3-dihydro-indol-2-one]	27 nM	132%	–

Continued, values first:

EC50	Emax [1]	α2β1γ2 AMPK Emax [1]	Compound
0.7 nM	256%	–	COc1cc(C(O)=C2C(=O)Nc3cc(Cl)c(-c4ccc5c(ccn5C)c4)cc32)on1 [Compound 154, 6-chloro-3-[hydroxy-(3-methoxyisoxazol-5-yl)methylene]-5-(1-methylindol-5-yl)indolin-2-one]
0.1 nM	–	–	COc1cc(C(O)=C2C(=O)Nc3cc(F)c(-c4ccc(C5(CO)CC5)cc4)c(F)c32)on1 [Compound 83, 4,6-difluoro-3-[hydroxy-(3-methoxyisoxazol-5-yl)methylene]-5-[4-[1-(hydroxymethyl)cyclopropyl]phenyl]indolin-2-one]
0.3 nM	172%	–	COc1cc(C(O)=C2C(=O)Nc3cc(F)c(-c4ccc(-c5cccc(OC)c5O)cc4)c(F)c32)on1 [Compound 92, 4,6-difluoro-3-[hydroxy-(3-methoxyisoxazol-5-yl)methylene]-5-[4-(2-hydroxy-3-methoxy-phenyl)phenyl]indolin-2-one]
4 nM	143%	–	O=C1Nc2cc(Cl)c(-c3ccc(C4(CO)CC4)cc3)cc2C1=C(O)c1cccs1 [Compound 114, 6-chloro-5-[4-[1-(hydroxymethyl)cyclopropyl]phenyl]-3-[hydroxy(2-thienyl)methylene]indolin-2-one]
2 nM	129%	–	O=C1Nc2cc(Cl)c(-c3ccc(C4(CO)CC4)cc3)cc2C1=C(O)c1cccc(F)c1 [Compound 27, 6-Chloro-3-[1-(3-fluoro-phenyl)-1-hydroxy-methylidene]-5-[4-(1-hydroxymethyl-cyclopropyl)-phenyl]-1,3-dihydro-indol-2-one]
1 nM	175%	–	COc1cc(C(O)=C2C(=O)Nc3cc(Cl)c(-c4ccc(C5(CO)CC5)cc4F)cc32)on1 [Compound 111, 6-chloro-5-[2-fluoro-4-[1-(hydroxymethyl)cyclopropyl]phenyl]-3-[hydroxy-(3-methoxyisoxazol-5-yl)methylene]indolin-2-one]
0.5 nM	133%	–	COc1cc(C(O)=C2C(=O)Nc3cc(F)c(-c4ccc(C5(CO)CC5)cc4)cc32)on1 [Compound 118, 6-fluoro-3-[hydroxy-(3-methoxyisoxazol-5-yl)methylene]-5-[4-[1-(hydroxymethyl)cyclopropyl]phenyl]indolin-2-one]
3 nM	230%	–	O=C1Nc2cc(Cl)c(-c3ccc(C4(CO)CC4)cc3)cc2C1=C(O)c1ccc(F)c(F)c1 [Compound 143, 6-chloro-3-[(3,4-difluorophenyl)hydroxy-methylene]-5-[4-[1-(hydroxymethyl)cyclopropyl]phenyl]indolin-2-one]
3 nM	196%	–	COc1ccc(C(O)=C2C(=O)Nc3cc(Cl)c(-c4ccc(C5(CO)CC5)cc4)cc32)c(OC)c1 [Compound 163, 6-chloro-3-[(2,4-dimethoxyphenyl)hydroxy-methylene]-5-[4-[1-(hydroxymethyl)cyclopropyl]phenyl]indolin-2-one]
0.1 nM	191%	–	O=C1Nc2cc(Cl)c(-c3ccc(C4(CO)CC4)cc3)cc2C1=C(O)c1ccncc1F [Compound 160, 6-chloro-3-[(3-fluoro-4-pyridyl)hydroxy-methylene]-5-[4-[1-(hydroxymethyl)cyclopropyl]phenyl]indolin-2-one]
2 nM	159%	–	Cc1cc(C(O)=C2C(=O)Nc3cc(F)c(-c4ccc(C5(CO)CC5)cc4)cc32)on1 [Compound 72, 6-Fluoro-5-[4-(1-hydroxymethyl-cyclopropyl)phenyl]-3-[1-hydroxy-1-(3-methyl-isoxazol-5-yl)methylidene]-1,3-dihydro-indol-2-one]
0.6 nM	165%	–	COc1cccc(-c2ccc(-c3cc4c(cc3Cl)NC(=O)C4=C(O)c3cc(OC(C)C)no3)cc2)c1O [Compound 109, 6-chloro-3-[hydroxy-(3-isopropoxyisoxazol-5-yl)methylene]-5-[4-(2-hydroxy-3-methoxy-phenyl)phenyl]indolin-2-one]
1 nM	172%	–	COc1cc(C(O)=C2C(=O)Nc3cc(Cl)c(-c4ccc(-c5cccc(OC)c5O)cc4)cc32)on1 [Compound 12]

Source: patent US10077237B2 (Sanofi, priority 2013, dated 2018)
